Laboratory results: US20160175229A1, “MICROPARTICLES WITH CYCLODEXTRINS HAVING A DUAL LEVEL OF ENCAPSULATION” (LCA DERMATECH, priority 2013, published 2016)

Assay: In vitro dermal absorption of hesperidin on Franz cells with skin explants (1st experimental part)
Format: in vitro ADME
Details: hesperidin 0.5 weight % of sample
Text: The diffusion of a first active ingredient, hesperidin, in the different layers of the skin has been assessed based on the manner by which it has been applied on the skin, namely: • 1) in the case where the hesperidin has been encapsulated in microparticles according to the invention, and following Example 1 which has been detailed above, • 2) in the case where the hesperidin has been encapsulated in microparticles of polymers, • 3) in the case where the hesperidin has been provided in a free form, • 4) in the case where the hesperidin has been provided in the form of an inclusion complex with a cyclodextrin.
These 4 preparations have constituted 4 samples of cutaneous application of hesperidin. Hesperidin represented 0.5 weight % of the mass of each of these 4 samples.
Tests on these 4 samples have been carried out in accordance with the Directives: SCCS/1358/10 on date of Jun. 22, 2010 <<Basic criteria for the in vitro assessment of dermal absorption of cosmetic ingredient>>, OECD 28 of 2004. OECD being the abbreviation of <<Organization for Economic Co-operation and Development>> and SCCS being the abbreviation of <<Scientific Committee on Consumer Safety>>.
The material that has been used consisted of Franz cells. Skin explants, with an average surface area of 2.54 cm^2 and with a thickness comprised between 1.1 and 1.35 mm, have been used. […]

COc1ccc([C@@H]2CC(=O)c3c(O)cc(O[C@@H]4O[C@H](CO[C@@H]5O[C@@H](C)[C@H](O)[C@@H](O)[C@H]5O)[C@@H](O)[C@H](O)[C@H]4O)cc3O2)cc1O [hesperidin in a free form, hesperidin]
amount of hesperidin cumulated in the dermis during 24 hours: 1.98 μg/cm^2
